*1 amine or outer side, *2 acyl side, *3 side chain or, on linkers, in order; H or OH if unused. Where a SMILES comes first, the peptide text is derived from it. Bridges are numbered along the chain shown (N, C = ends). [ ]: non-standard residue; d: D form. The star is where a group is joined. DOTA = O=C(O)CN1CCN(CC(=O)O)CCN(CC(=O)*)CCN(CC(=O)O)CC1; Phe(2,4-Cl2) = N[C@@H](Cc1ccc(Cl)cc1Cl)C(=O)O; Phe(4-Cl) = N[C@@H](Cc1ccc(Cl)cc1)C(=O)O; Pro(cis-4-F) = O=C(O)[C@@H]1C[C@H](F)CN1; Phe(4-NH2) = Nc1ccc(C[C@H](N)C(=O)O)cc1; Pro(4R-NH2) = N[C@H]1CN[C@H](C(=O)O)C1; 1Nal = N[C@@H](Cc1cccc2ccccc12)C(=O)O; Hyp = O=C(O)[C@@H]1C[C@@H](O)CN1; Pentanoyl(4-Me) = CC(C)CCC(=O)*; Cit = NC(=O)NCCC[C@H](N)C(=O)O; NMeL = CN[C@@H](CC(C)C)C(=O)O; Butoxycarbonyl = CCCCOC(=O)*; Suc = O=C(CCC(=O)[*:2])[*:1]; hCys = N[C@@H](CCS)C(=O)O; Nva = CCC[C@H](N)C(=O)O; Pentanoyl = CCCCC(=O)*; Aib = CC(C)(N)C(=O)O
Experiments:
human uPAR (uPAR-Fc) = target: T1, human uPAR (uPAR-Fc) (Homo sapiens, UniProt Q03405); assay: Surface plasmon resonance (SPR) assay, single cycle kinetics; type: binding; settings: pKD category for uPAR SPR activity assay; uPAR-Fc on Protein A-Chip, 25°C; read-out: pKD CAT (converted)
T1 construct: comprising amino acids Leu23-Arg303 according to UniProt entry Q03405.1; purchased R&D Systems 10378-UK-100
In short: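 uPAR-Fc (Leu23-Arg303 extracellular domains, human IgG1 Fc) captured on Protein A chip to ~2000 RU; single-cycle kinetics at 25°C in HEPES running buffer pH 7.4 with 0.1% DMSO. KD from double-referenced sensorgrams fitted to 1:1 Langmuir model, reported as pKD.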

[1] = target: T2, uPAR-expressing HEC-265 human endometrial adenocarcinoma cells (Homo sapiens, UniProt Q03405); assay: Competitive FACS binding assay; settings: pIC50 category of FACS binding
T2 construct: Cell surface uPAR-expressing HEC-265 human endometrial adenocarcinoma cells; host or cells: HEC-265
In short: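 HEC-265 cells incubated 1 h at 4 °C with 10 nM biotinylated uPAR peptide tracer plus increasing test compound, then stained with APC-streptavidin on ice. Median APC fluorescence by flow cytometry; 4PL fit gives pIC50.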

T2 sequence (Q03405 23-335): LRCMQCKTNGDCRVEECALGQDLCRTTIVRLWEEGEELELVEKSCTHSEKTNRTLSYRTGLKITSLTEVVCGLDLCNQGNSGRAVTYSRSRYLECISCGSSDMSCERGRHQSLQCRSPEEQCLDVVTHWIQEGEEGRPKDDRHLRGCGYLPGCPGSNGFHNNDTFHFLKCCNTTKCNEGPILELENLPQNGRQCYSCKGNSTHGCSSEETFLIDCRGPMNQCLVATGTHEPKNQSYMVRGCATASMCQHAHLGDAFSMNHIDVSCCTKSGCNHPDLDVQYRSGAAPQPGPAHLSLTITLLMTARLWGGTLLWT
T1 sequence (Q03405 23-303): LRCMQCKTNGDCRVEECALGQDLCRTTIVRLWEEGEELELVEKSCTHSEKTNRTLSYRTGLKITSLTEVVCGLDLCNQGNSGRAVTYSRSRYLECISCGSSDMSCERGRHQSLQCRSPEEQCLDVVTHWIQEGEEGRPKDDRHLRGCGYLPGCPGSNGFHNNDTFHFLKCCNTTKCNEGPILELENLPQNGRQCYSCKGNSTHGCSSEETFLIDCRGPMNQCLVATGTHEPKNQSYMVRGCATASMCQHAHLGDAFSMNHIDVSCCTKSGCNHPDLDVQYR

Row | SMILES | Kd (human uPAR (uPAR-Fc)) | IC50 [1]
1 | CCC[C@H](NC(=O)CCC(=O)O)C(=O)N[C@H]1CSSC[C@@H](C(N)=O)NC(=O)[C@H](CCC)NC(=O)[C@H]([C@@H](C)CC)NC(=O)[C@@H]2C[C@@H](O)CN2C(=O)[C@@H]2CCCN2C(=O)[C@H](Cc2ccccc2)NC(=O)[C@H](Cc2ccc(O)cc2)NC(=O)[C@H](CCCCNC(=O)CN2CCN(CC(=O)O)CCN(CC(=O)O)CCN(CC(=O)O)CC2)NC(=O)[C@H]([C@@H](C)O)NC1=O [UPAR-297, Succinyl-Nva-[Cys-Thr-Lys(DOTA)-Tyr-Phe-Pro-Hyp-Ile-Nva-Cys]-NH2] (Suc-[Nva]CTK(DOTA)YFP[Hyp]I[Nva]C-NH2; disulfide 2-11) | < 1.58 nM | ≤ 10 nM
2 | CCCCC(=O)N[C@H]1CSSC[C@@H](C(N)=O)NC(=O)[C@H](CCC)NC(=O)[C@H]([C@@H](C)CC)NC(=O)[C@@H]2C[C@@H](O)CN2C(=O)[C@H](CCCCN)NC(=O)[C@H](Cc2ccccc2)NC(=O)[C@H](Cc2ccc(O)cc2)NC(=O)[C@H](CCC(N)=O)NC(=O)[C@H](CCCNC(=N)N)NC1=O [UPAR-298, Pent-[Cys-Arg-Gln-Tyr-Phe-Lys-Hyp-Ile-Nva-Cys]-NH2] (Pentanoyl-CRQYFK[Hyp]I[Nva]C-NH2; disulfide 1-10) | 10 to 100 nM | 39.8 to 100 nM
3 | CCCCC(=O)N[C@H]1CSSC[C@@H](C(N)=O)NC(=O)[C@H](CCC)NC(=O)[C@H]([C@@H](C)CC)NC(=O)C(C)(C)NC(=O)[C@@H]2CCCN2C(=O)[C@H](Cc2ccccc2)NC(=O)[C@H](Cc2ccc(O)cc2)NC(=O)[C@H](CCCCNC(=O)CN2CCN(CC(=O)O)CCN(CC(=O)O)CCN(CC(=O)O)CC2)NC(=O)[C@H](CCCNC(N)=O)NC1=O [UPAR-299, Pent-[Cys-Cit-Lys(DOTA)-Tyr-Phe-Pro-Aib-Ile-Nva-Cys]-NH2] (Pentanoyl-C[Cit]K(DOTA)YFP[Aib]I[Nva]C-NH2; disulfide 1-10) | < 1.58 nM | ≤ 10 nM
4 | CCCCC(=O)N[C@H]1CCSSC[C@@H](C(N)=O)NC(=O)[C@H](CCC)NC(=O)[C@H]([C@@H](C)CC)NC(=O)[C@@H]2C[C@@H](O)CN2C(=O)[C@@H]2CCCN2C(=O)[C@H](Cc2ccccc2)NC(=O)[C@H](Cc2ccc(O)cc2)NC(=O)[C@H](CCC(N)=O)NC(=O)[C@H](CCCNC(=N)N)NC1=O [UPAR-300, Pent-[Hcy-Arg-Gln-Tyr-Phe-Pro-Hyp-Ile-Nva-Cys]-NH2] (Pentanoyl-[hCys]RQYFP[Hyp]I[Nva]C-NH2; disulfide 1-10) | 1.58 to 10 nM | 12.6 to 31.6 nM
5 | CCCCC(=O)N[C@H]1CSSC[C@@H](C(N)=O)NC(=O)[C@H](CCC)NC(=O)[C@H]([C@@H](C)CC)NC(=O)[C@@H]2C[C@@H](O)CN2C(=O)[C@H](CC(C)C)N(C)C(=O)[C@H](Cc2ccccc2)NC(=O)[C@H](Cc2ccc(O)cc2)NC(=O)[C@H](CCC(N)=O)NC(=O)[C@H](CCCNC(=N)N)NC1=O [UPAR-302, Pent-[Cys-Arg-Gln-Tyr-Phe-Nml-Hyp-Ile-Nva-Cys]-NH2] (Pentanoyl-CRQYF[NMeL][Hyp]I[Nva]C-NH2; disulfide 1-10) | 1.58 to 10 nM | 12.6 to 31.6 nM
6 | CCCCOC(=O)N[C@H]1CSSC[C@@H](C(N)=O)NC(=O)[C@H](CCC)NC(=O)[C@H]([C@@H](C)CC)NC(=O)[C@@H]2C[C@@H](O)CN2C(=O)[C@@H]2C[C@H](F)CN2C(=O)[C@H](Cc2ccc(Cl)cc2)NC(=O)[C@H](Cc2ccc(O)cc2)NC(=O)[C@H](CCCCNC(=O)CN2CCN(CC(=O)O)CCN(CC(=O)O)CCN(CC(=O)O)CC2)NC(=O)[C@H](CCCNC(N)=O)NC1=O [UPAR-304, Butoc-[Cys-Cit-Lys(DOTA)-Tyr-Pcf-4Cfp-Hyp-Ile-Nva-Cys]-NH2] (Butoxycarbonyl-C[Cit]K(DOTA)Y[Phe(4-Cl)][Pro(cis-4-F)][Hyp]I[Nva]C-NH2; disulfide 1-10) | < 1.58 nM | ≤ 10 nM
7 | CC[C@H](C)[C@@H]1NC(=O)[C@H]2CCCN2C(=O)[C@@H]2CCCN2C(=O)[C@H](Cc2ccccc2)NC(=O)[C@H](Cc2ccc(O)cc2)NC(=O)[C@H](CCC(N)=O)NC(=O)[C@H](CCCNC(N)=O)NC(=O)[C@@H](NC(=O)CCC(C)C)CSSC[C@@H](C(N)=O)NC(=O)[C@H](CC(C)C)NC1=O [UPAR-305, iHex-[Cys-Cit-Gln-Tyr-Phe-Pro-pro-Ile-Leu-Cys]-NH2] ({Pentanoyl(4-Me)}-C[Cit]QYFP[dP]ILC-NH2; disulfide 1-10) | > 100 nM | ≥ 126 nM
8 | CC[C@H](C)[C@@H]1NC(=O)[C@@H]2C[C@H](F)CN2C(=O)[C@@H]2CCCN2C(=O)[C@H](Cc2ccccc2)NC(=O)[C@H](Cc2ccc(O)cc2)NC(=O)[C@H](CCC(N)=O)NC(=O)[C@H](CCCNC(N)=O)NC(=O)[C@@H](NC(=O)CCC(C)C)CSSC[C@@H](C(N)=O)NC(=O)[C@H](CC(C)C)NC1=O [UPAR-307, iHex-[Cys-Cit-Gln-Tyr-Phe-Pro-4Cfp-Ile-Leu-Cys]-NH2] ({Pentanoyl(4-Me)}-C[Cit]QYFP[Pro(cis-4-F)]ILC-NH2; disulfide 1-10) | < 1.58 nM | ≤ 10 nM
9 | CCCCC(=O)N[C@H]1CSSC[C@@H](C(N)=O)NC(=O)[C@H](CCC)NC(=O)[C@H]([C@@H](C)CC)NC(=O)[C@@H]2C[C@@H](O)CN2C(=O)[C@@H]2CCCN2C(=O)[C@H](Cc2c[nH]c3ccccc23)NC(=O)[C@H](Cc2ccc(O)cc2)NC(=O)[C@H](CCC(N)=O)NC(=O)[C@H](CCCNC(=N)N)NC1=O [UPAR-308, Pent-[Cys-Arg-Gln-Tyr-Trp-Pro-Hyp-Ile-Nva-Cys]-NH2] (Pentanoyl-CRQYWP[Hyp]I[Nva]C-NH2; disulfide 1-10) | 1.58 to 10 nM | ≤ 10 nM
10 | CCCCC(=O)N[C@H]1CSSC[C@@H](C(N)=O)NC(=O)[C@H](CCC)NC(=O)[C@H]([C@@H](C)CC)NC(=O)[C@@H]2C[C@@H](O)CN2C(=O)[C@@H]2CCCN2C(=O)[C@H](Cc2ccccc2)NC(=O)[C@H](Cc2ccc(O)cc2)NC(=O)[C@H](CCC(N)=O)NC(=O)[C@H](CCCNC(N)=O)NC1=O [UPAR-309, Pent-[Cys-Cit-Gln-Tyr-Phe-Pro-Hyp-Ile-Nva-Cys]-NHz] (Pentanoyl-C[Cit]QYFP[Hyp]I[Nva]C-NH2; disulfide 1-10) | < 1.58 nM | ≤ 10 nM
11 | CC[C@H](C)[C@@H]1NC(=O)[C@@H](C)NC(=O)[C@@H]2CCCN2C(=O)[C@H](Cc2cccc3ccccc23)NC(=O)[C@H](Cc2ccc(O)cc2)NC(=O)[C@H](CCC(N)=O)NC(=O)[C@H](CCCNC(N)=O)NC(=O)[C@@H](NC(=O)CCC(C)C)CSSC[C@@H](C(N)=O)NC(=O)[C@H](CC(C)C)NC1=O [UPAR-310, iHex-[Cys-Cit-Gln-Tyr-1Ni-Pro-ala-Ile-Leu-Cys]-NH2] ({Pentanoyl(4-Me)}-C[Cit]QY[1Nal]P[dA]ILC-NH2; disulfide 1-10) | < 1.58 nM | ≤ 10 nM
12 | CC[C@H](C)[C@@H]1NC(=O)[C@H](C)NC(=O)[C@@H]2CCCN2C(=O)[C@H](Cc2ccccc2)NC(=O)[C@H](Cc2ccc(O)cc2)NC(=O)[C@H](CCSC)NC(=O)[C@H](CCCNC(=N)N)NC(=O)[C@@H](NC(=O)[C@H](CC(C)C)NC(=O)[C@H](CC(=O)O)NC(=O)[C@@H](N)CCSC)CSSC[C@@H](C(N)=O)NC(=O)[C@H](CC(C)C)NC1=O [UPAR-312, H-Met-Asp-Leu-[Cys-Arg-Met-Tyr-Phe-Pro-Ala-Ile-Leu-Cys]-NH2] (H-MDLCRMYFPAILC-NH2; disulfide 4-13) | 1.58 to 10 nM | ≤ 10 nM
13 | CCCCC(=O)N[C@H]1CSSC[C@@H](C(N)=O)NC(=O)[C@H](CCC)NC(=O)[C@H]([C@@H](C)CC)NC(=O)[C@@H]2C[C@@H](N)CN2C(=O)[C@@H]2CCCN2C(=O)[C@H](Cc2ccccc2)NC(=O)[C@H](Cc2ccc(O)cc2)NC(=O)[C@H](CCCNC(=N)N)NC(=O)[C@H](CCCNC(=N)N)NC1=O [UPAR-313, Pent-[Cys-Arg-Arg-Tyr-Phe-Pro-Tap-Ile-Nva-Cys]-NH2] (Pentanoyl-CRRYFP[Pro(4R-NH2)]I[Nva]C-NH2; disulfide 1-10) | < 1.58 nM | ≤ 10 nM
14 | CC[C@H](C)[C@@H]1NC(=O)[C@@H](C)NC(=O)[C@@H]2CCCN2C(=O)[C@H](Cc2ccccc2)NC(=O)[C@H](Cc2ccc(N)cc2)NC(=O)[C@H](CCC(N)=O)NC(=O)[C@H](CCCNC(N)=O)NC(=O)[C@@H](NC(=O)CCC(C)C)CSSC[C@@H](C(N)=O)NC(=O)[C@H](CC(C)C)NC1=O [UPAR-314, iHex-[Cys-Cit-Gln-Aph-Phe-Pro-ala-Ile-Leu-Cys]-NH2] ({Pentanoyl(4-Me)}-C[Cit]Q[Phe(4-NH2)]FP[dA]ILC-NH2; disulfide 1-10) | < 1.58 nM | ≤ 10 nM
15 | CCCCC(=O)N[C@H]1CSSC[C@@H](C(N)=O)NC(=O)[C@H](CCC)NC(=O)[C@H]([C@@H](C)CC)NC(=O)[C@@H]2C[C@@H](O)CN2C(=O)[C@@H]2CCCN2C(=O)[C@H](Cc2ccc(Cl)cc2Cl)NC(=O)[C@H](Cc2ccc(O)cc2)NC(=O)[C@H](CCCCNC(=O)CN2CCN(CC(=O)O)CCN(CC(=O)O)CCN(CC(=O)O)CC2)NC(=O)[C@H](CCCNC(N)=O)NC1=O [UPAR-315, Pent-[Cys-Cit-Lys(DOTA)-Tyr-Egm-Pro-Hyp-Ile-Nva-Cys]-NHz] (Pentanoyl-C[Cit]K(DOTA)Y[Phe(2,4-Cl2)]P[Hyp]I[Nva]C-NH2; disulfide 1-10) | < 1.58 nM | ≤ 10 nM
